Where “and” joins values, the source holds several entries; their conditions need not be identical. Identical values can stand only once.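 Values below derive from 48-hour exposures of cells grown in 96-well plates, with endpoints linearly interpolated between the two concentrations bracketing the appropriate inhibition level. GI50 = concentration required for 50% inhibition of growth. TGI denotes the concentration required for complete inhibition of growth.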 Where a SMILES comes first, the peptide text is derived from it. [ ]: non-standard residue; d: D form. The star is where a group is joined. NMeAc5c = CNC1(C(=O)O)CCCC1; Boc = CC(C)(C)OC(=O)*; OBn = c1ccc(CO*)cc1
Tests used:
Assay in all cases: NCI anticancer screen, dose series, 48 h
SNB-19 CNS = test system: SNB-19 CNS
MDA-MB-435 = test system: MDA-MB-435
SK-OV-3 ovarian = test system: SK-OV-3 ovarian
RPMI-8226 leukemia = test system: RPMI-8226 leukemia
SK-MEL-2 melanoma = test system: SK-MEL-2 melanoma
CCRF-CEM leukemia = test system: CCRF-CEM leukemia
KM12 colon = test system: KM12 colon
SK-MEL-5 melanoma = test system: SK-MEL-5 melanoma
SK-MEL-28 melanoma = test system: SK-MEL-28 melanoma
SNB-75 CNS = test system: SNB-75 CNS
A498 renal = test system: A498 renal

`Nc1nc(Cl)cc(NCC2(CO)CC(=O)C2)n1` showed a TGI (SNB-19 CNS) of over 100 µM, a TGI (MDA-MB-435) of over 100 µM and a TGI (SK-OV-3 ovarian) of over 100 µM. The TGI (RPMI-8226 leukemia) was over 100 µM, the TGI (SK-MEL-2 melanoma) was over 100 µM and the TGI (CCRF-CEM leukemia) was over 100 µM. The TGI (KM12 colon) was over 100 µM, the TGI (SK-MEL-5 melanoma) was over 100 µM and the TGI (SK-MEL-28 melanoma) was over 100 µM.

With `COc1cccc(C(=O)O[C@H]2[C@@H]3[C@]4(OC(C)=O)CO[C@@H]4C[C@H](O)[C@@]3(C)C(=O)[C@H](OC(C)=O)C3=C(C)[C@@H](OC(=O)[C@H](O)[C@@H](NC(=O)OC(C)(C)C)c4ccco4)C[C@]2(O)C3(C)C)c1` the TGI (SNB-19 CNS) was over 30 µM, the TGI (MDA-MB-435) was 0.0909 µM and the TGI (SK-OV-3 ovarian) was 0.0279 µM. It also gave a TGI (SK-MEL-2 melanoma) of 16.9 µM, a TGI (SNB-75 CNS) of 0.0241 µM and a TGI (CCRF-CEM leukemia) of 0.368 µM. For the same molecule, the TGI (KM12 colon) was over 15.2 µM, the TGI (SK-MEL-5 melanoma) was over 15.7 µM and the TGI (SK-MEL-28 melanoma) was over 29.5 µM.

With `COc1cc(Br)cc2cc(-c3cn4ccsc4n3)c(=O)oc12` the TGI (SNB-19 CNS) was over 100 µM, the TGI (MDA-MB-435) was 51.2 µM and the TGI (SK-OV-3 ovarian) was over 100 µM. For the same molecule, the TGI (RPMI-8226 leukemia) was over 100 µM, the TGI (SK-MEL-2 melanoma) was over 100 µM and the TGI (SNB-75 CNS) was over 100 µM. It also gave a TGI (CCRF-CEM leukemia) of over 100 µM, a TGI (KM12 colon) of 56.5 µM and a TGI (SK-MEL-5 melanoma) of 49.9 µM. The TGI (SK-MEL-28 melanoma) was over 100 µM.

`COC(=O)c1cc(=O)nc2sc3cccc(C)c3n12` gave a TGI (SNB-19 CNS) of over 100 µM, a TGI (MDA-MB-435) of over 100 µM and a TGI (SK-OV-3 ovarian) of over 100 µM. It also gave a TGI (RPMI-8226 leukemia) of 67.9 µM, a TGI (SK-MEL-2 melanoma) of 82.5 µM and a TGI (SNB-75 CNS) of over 100 µM. It also gave a TGI (CCRF-CEM leukemia) of over 100 µM, a TGI (KM12 colon) of over 100 µM and a TGI (SK-MEL-5 melanoma) of over 100 µM. It also gave a TGI (SK-MEL-28 melanoma) of over 100 µM.

In the case of `CN(C(=O)C(Cc1ccccc1)NC(=O)OC(C)(C)C)C1(C(=O)NC(Cc2ccccc2)C(=O)OCc2ccccc2)CCCC1` (stereo not drawn) (Boc-Phe-[NMeAc5c]-Phe-OBn; configuration not given here), the TGI (SNB-19 CNS) was over 100 µM, the TGI (MDA-MB-435) was over 100 µM and the TGI (SK-OV-3 ovarian) was 41.3 µM. The TGI (RPMI-8226 leukemia) was 57.2 µM, the TGI (SK-MEL-2 melanoma) was over 100 µM and the TGI (SNB-75 CNS) was over 100 µM. The TGI (CCRF-CEM leukemia) was over 100 µM, the TGI (KM12 colon) was over 100 µM and the TGI (SK-MEL-5 melanoma) was over 100 µM. For the same molecule, the TGI (SK-MEL-28 melanoma) was over 100 µM.

Work on `C=C(C)C(=O)OC1C/C(CO)=C\C(O)C/C(C)=C/C2OC(=O)C(=C)C21` (configuration not stated) yielded a TGI (SNB-19 CNS) of over 100 µM, a TGI (SK-OV-3 ovarian) of over 100 µM and a TGI (RPMI-8226 leukemia) of 45.6 µM. The TGI (SK-MEL-2 melanoma) was 36.6 µM, the TGI (SNB-75 CNS) was over 100 µM and the TGI (CCRF-CEM leukemia) was 36.6 µM. The TGI (KM12 colon) was 38.8 µM, the TGI (SK-MEL-5 melanoma) was 44.1 µM and the TGI (SK-MEL-28 melanoma) was 33.4 µM.

In the case of `CCCCC#C[I+]c1ccccc1`, the TGI (SNB-19 CNS) was 30.9 µM, the TGI (SK-OV-3 ovarian) was 30.4 µM and the TGI (SK-MEL-2 melanoma) was 34.1 µM. The TGI (SNB-75 CNS) was 30.1 µM, the TGI (CCRF-CEM leukemia) was 24.4 µM and the TGI (A498 renal) was 48.2 µM. The TGI (KM12 colon) was 27.7 µM, the TGI (SK-MEL-5 melanoma) was 31.1 µM and the TGI (SK-MEL-28 melanoma) was 31.8 µM.

`CCOC(=O)/C=C/CC(C)(C)CCOC(C)=O` showed a TGI (SNB-19 CNS) of over 10 µM, a TGI (MDA-MB-435) of over 10 µM and a TGI (SK-OV-3 ovarian) of over 10 µM. It also gave a TGI (RPMI-8226 leukemia) of over 10 µM, a TGI (SK-MEL-2 melanoma) of over 10 µM and a TGI (SNB-75 CNS) of over 10 µM. For the same molecule, the TGI (CCRF-CEM leukemia) was over 10 µM, the TGI (KM12 colon) was over 10 µM and the TGI (SK-MEL-5 melanoma) was over 10 µM. The TGI (SK-MEL-28 melanoma) was over 10 µM.

With `Cc1c(O)c(O)cc[n+]1C1OC(CO)C(O)C1O` (configuration not stated) the TGI (SNB-19 CNS) was over 100 µM, the TGI (SK-OV-3 ovarian) was over 100 µM and the TGI (RPMI-8226 leukemia) was over 100 µM. The TGI (SK-MEL-2 melanoma) was over 100 µM, the TGI (SNB-75 CNS) was over 100 µM and the TGI (CCRF-CEM leukemia) was over 100 µM. The TGI (A498 renal) was over 100 µM, the TGI (KM12 colon) was over 100 µM and the TGI (SK-MEL-28 melanoma) was over 100 µM.

`CCOC(=O)c1cn2c(n1)sc1cccc(C)c12` was tested, and the TGI (SNB-19 CNS) was over 100 µM, the TGI (SK-OV-3 ovarian) was over 100 µM and the TGI (SNB-75 CNS) was over 100 µM. The TGI (KM12 colon) was over 100 µM and the TGI (SK-MEL-5 melanoma) was over 100 µM.

`O=c1c2cc([N+](=O)[O-])cnc2sn1-c1ccc([N+](=O)[O-])cc1` was tested, and the TGI (SNB-19 CNS) was over 100 µM, the TGI (MDA-MB-435) was over 100 µM and the TGI (SK-OV-3 ovarian) was over 100 µM. For the same molecule, the TGI (RPMI-8226 leukemia) was 81.2 µM, the TGI (SK-MEL-2 melanoma) was 88.1 µM and the TGI (SNB-75 CNS) was over 100 µM. For the same molecule, the TGI (CCRF-CEM leukemia) was 82.2 µM, the TGI (KM12 colon) was 62.4 µM and the TGI (SK-MEL-5 melanoma) was over 100 µM. The TGI (SK-MEL-28 melanoma) was over 100 µM.

`O=C(CCN1CCCCC1)C(=Cc1ccccc1)C(=O)CCN1CCCCC1` was tested, and the TGI (SNB-19 CNS) was over 100 µM, the TGI (SK-OV-3 ovarian) was over 100 µM and the GI50 (RPMI-8226 leukemia) was 4.49 µM. The TGI (RPMI-8226 leukemia) was 57.9 µM, the TGI (SK-MEL-2 melanoma) was over 100 µM and the TGI (SNB-75 CNS) was over 100 µM. For the same molecule, the GI50 (CCRF-CEM leukemia) was 2.44 µM, the TGI (CCRF-CEM leukemia) was 7.36 µM and 51.2 µM and the TGI (A498 renal) was over 100 µM. The TGI (KM12 colon) was over 100 µM, the TGI (SK-MEL-5 melanoma) was over 100 µM and the GI50 (SK-MEL-28 melanoma) was over 100 µM. The TGI (SK-MEL-28 melanoma) was over 100 µM.

`CN1C(=O)C2CCC(=O)N2c2cccnc21` (configuration not stated) showed a TGI (SNB-19 CNS) of over 100 µM, a TGI (MDA-MB-435) of over 100 µM and a TGI (RPMI-8226 leukemia) of over 100 µM. It also gave a TGI (SK-MEL-2 melanoma) of over 100 µM, a TGI (CCRF-CEM leukemia) of over 100 µM and a TGI (KM12 colon) of over 100 µM. The TGI (SK-MEL-5 melanoma) was over 100 µM and the TGI (SK-MEL-28 melanoma) was over 100 µM.

`Cc1cn2c(/C=N/N=C(N)N)c(-c3cccc([N+](=O)[O-])c3)nc2s1` showed a TGI (MDA-MB-435) of 3.21 µM, a TGI (RPMI-8226 leukemia) of over 100 µM and a TGI (CCRF-CEM leukemia) of over 100 µM. The TGI (KM12 colon) was 2.38 µM, the TGI (SK-MEL-5 melanoma) was 3.13 µM and the TGI (SK-MEL-28 melanoma) was 2.55 µM.

In the case of `Clc1ccccc1C(SCc1ccccc1)SCc1ccccc1`, the TGI (SNB-19 CNS) was over 100 µM, the TGI (RPMI-8226 leukemia) was over 100 µM and the TGI (SK-MEL-2 melanoma) was over 100 µM. It also gave a TGI (SNB-75 CNS) of over 100 µM, a TGI (CCRF-CEM leukemia) of over 100 µM and a TGI (KM12 colon) of over 100 µM. It also gave a TGI (SK-MEL-5 melanoma) of over 100 µM and a TGI (SK-MEL-28 melanoma) of over 100 µM.

In the case of `COc1cc2c(c(OC)c1OC)C(=O)[C@@H]1[C@H]2N1C(N)=O`, the TGI (SNB-19 CNS) was over 100 µM, the TGI (MDA-MB-435) was over 100 µM and the TGI (RPMI-8226 leukemia) was over 100 µM. The TGI (SNB-75 CNS) was over 100 µM, the TGI (CCRF-CEM leukemia) was over 100 µM and the TGI (KM12 colon) was over 100 µM. The TGI (SK-MEL-5 melanoma) was over 100 µM and the TGI (SK-MEL-28 melanoma) was over 100 µM.

`NC(=O)NCCCC(NC(=O)OCCCCn1ccc(=O)[nH]c1=O)C(=O)O` (configuration not stated) gave a TGI (SNB-19 CNS) of over 100 µM, a TGI (MDA-MB-435) of over 100 µM and a TGI (SK-OV-3 ovarian) of over 100 µM. It also gave a TGI (RPMI-8226 leukemia) of over 100 µM, a TGI (SK-MEL-2 melanoma) of over 100 µM and a TGI (SNB-75 CNS) of over 100 µM. The TGI (CCRF-CEM leukemia) was over 100 µM, the TGI (KM12 colon) was over 100 µM and the TGI (SK-MEL-28 melanoma) was over 100 µM.

For `CCC(C(=O)O)c1ccc(OC)cc1` (configuration not stated), the TGI (SNB-19 CNS) was over 100 µM, the TGI (SK-OV-3 ovarian) was over 100 µM and the TGI (RPMI-8226 leukemia) was over 100 µM. For the same molecule, the TGI (SK-MEL-2 melanoma) was over 100 µM, the TGI (SNB-75 CNS) was over 100 µM and the TGI (CCRF-CEM leukemia) was over 100 µM. For the same molecule, the TGI (A498 renal) was over 100 µM, the TGI (KM12 colon) was over 100 µM and the TGI (SK-MEL-5 melanoma) was over 100 µM. The TGI (SK-MEL-28 melanoma) was over 100 µM.

From PubChem BioAssay (NCI)
